# According to patent US10030006B2, “Coumarin based Hsp90 inhibitors with urea and ether substituents” (University of Kansas, priority 2013, dated 2018):
# Read-outs that look alike come from different tables or passages of the source.
# Key:
# Format in all cases: cell-based
# [1] = tested on: SKBr3 (estrogen receptor negative, Her2 over-expressing breast cancer cells); experiment: Anti-proliferation assay (MTS/PMS, 72 h), SKBr3; conditions: Breast Cancer, read-out: IC50 SKBr3
# [2] = tested on: MCF-7 (estrogen receptor positive breast cancer cells); experiment: Anti-proliferation assay (MTS/PMS, 72 h), MCF-7; conditions: Breast Cancer, read-out: IC50 MCF-3
# HCT-116 = experiment: Anti-proliferation assay, HCT-116
# Protocol: (§1) Cells were maintained in a 1:1 mixture of Advanced DMEM/F12 (Gibco) supplemented with non-essential amino acids, L-glutamine (2 mM), streptomycin (500 μg/mL), penicillin (100 units/mL), and 10% FBS. Cells were grown to confluence in a humidified atmosphere (37° C., 5% CO2), seeded (2000/well, 100 μL) in 96-well plates, and allowed to attach overnight. Compound at varying concentrations in DMSO (1% DMSO final concentration) was added, and cells were returned to the incubator for 72 h. At 72 h, the number of viable cells was determined using an MTS/PMS cell proliferation kit (Promega) per the manufacturer's instructions. Cells incubated in 1% DMSO were used at 100% proliferation, and values were adjusted accordingly. IC50 values were calculated from separate experiments performed in triplicate using GraphPad Prism.
# PC-3 = experiment: Anti-proliferation assay, PC-3; conditions: Prostate Cancer
# Protocol: as §1
# A-549 = experiment: Anti-proliferation assay, A-549
# Protocol: as §1
# MDA1986 = experiment: Anti-proliferation assay, MDA1986; conditions: HSNCC
# Protocol: as §1
# JMAR = experiment: Anti-proliferation assay, JMAR; conditions: HSNCC
# Protocol: as §1
# MDAMB231 = experiment: Anti-proliferation assay, MDAMB231; conditions: Tri-Neg
# Protocol: as §1
# DRO81-1 = experiment: Anti-proliferation assay, DRO81-1; conditions: Thyroid
# Protocol: as §1
# BCPAP = experiment: Anti-proliferation assay, BCPAP; conditions: Thyroid
# Protocol: as §1
# MRC5 = experiment: Anti-proliferation assay, MRC5 (normal); conditions: Homo sapiens
# Protocol: as §1
# HMLE = experiment: Anti-proliferation assay, HMLE (normal); conditions: HMLE
# Protocol: as §1
# [3] = Homo sapiens, SK-BR-3, Table 7, prenylated phenyl ureas
# [4] = Homo sapiens, MCF7, Table 7, prenylated phenyl ureas
# [5] = Homo sapiens, HCT-116, Table 7, prenylated phenyl ureas
# [6] = Homo sapiens, PC-3, Table 7, prenylated phenyl ureas
# [7] = Homo sapiens, A549, Table 7, prenylated phenyl ureas
# [8] = MDA1986, Table 7, prenylated phenyl ureas
# [9] = JMAR, Table 7, prenylated phenyl ureas
# [10] = Homo sapiens, MDA-MB-231, Table 7, prenylated phenyl ureas
# [11] = Table 7, prenylated phenyl ureas
# [12] = Homo sapiens, BCPAP, Table 7, prenylated phenyl ureas
# [13] = MRC5, Table 7, prenylated phenyl ureas
# [14] = Homo sapiens, SK-BR-3, Table 8, biphenyl ureas
# [15] = Homo sapiens, MCF7, Table 8, biphenyl ureas
# [16] = Homo sapiens, HCT-116, Table 8, biphenyl ureas
# [17] = Homo sapiens, PC-3, Table 8, biphenyl ureas
# [18] = Homo sapiens, A549, Table 8, biphenyl ureas
# [19] = MDA1986, Table 8, biphenyl ureas
# [20] = Homo sapiens, MDA-MB-231, Table 8, biphenyl ureas
# [21] = Homo sapiens, BCPAP, Table 8, biphenyl ureas
# [22] = Homo sapiens, SK-BR-3, Table 6, substituted phenyl ureas
# [23] = Homo sapiens, MCF7, Table 6, substituted phenyl ureas
# [24] = Homo sapiens, HCT-116, Table 6, substituted phenyl ureas
# [25] = Homo sapiens, PC-3, Table 6, substituted phenyl ureas
# [26] = Homo sapiens, A549, Table 6, substituted phenyl ureas
# [27] = MDA1986, Table 6, substituted phenyl ureas
# [28] = JMAR, Table 6, substituted phenyl ureas
# [29] = Homo sapiens, MDA-MB-231, Table 6, substituted phenyl ureas
# [30] = Table 6, substituted phenyl ureas
# [31] = Homo sapiens, BCPAP, Table 6, substituted phenyl ureas
# [32] = MRC5, Table 6, substituted phenyl ureas
Structure (SMILES),"IC50 (HCT-116; Table 9, non-aryl ureas) [nM]","IC50 (PC-3; Table 9, non-aryl ureas) [nM]","IC50 (A-549; Table 9, non-aryl ureas) [nM]","IC50 (MDAMB231; Table 9, non-aryl ureas) [nM]","IC50 [1, 22] [nM]","IC50 [2, 23] [nM]",IC50 (HCT-116; [24]) [nM],IC50 (PC-3; [25]) [nM],IC50 (A-549; [26]) [nM],IC50 (MDAMB231; [29]) [nM],"IC50 (MDA1986; Table 9, non-aryl ureas) [nM]","IC50 (JMAR; Table 9, non-aryl ureas) [nM]","IC50 (DRO81-1; Table 9, non-aryl ureas) [nM]","IC50 (BCPAP; Table 9, non-aryl ureas) [nM]",IC50 (MDA1986; [27]) [nM],IC50 (JMAR; [28]) [nM],IC50 (DRO81-1; [30]) [nM],IC50 (BCPAP; [31]) [nM],IC50 (MRC5; [32]) [nM],IC50 (HMLE; [30]) [nM],also measured
Cc1c(OC2CCN(C)CC2)ccc2cc(NC(=O)NC(c3ccccc3)c3ccccc3)c(=O)oc12 [drawing 162],960 ± 160,1120 ± 50,870 ± 210,4300,,,,,,,7100,5900,1300,5760,,,,,,,"IC50 ([1]; Table 9, non-aryl ureas): 490 ± 70 nM; IC50 ([2]; Table 9, non-aryl ureas): 540 ± 10 nM"
"CC(=O)Oc1ccc(NC(=O)Nc2cc3ccc(OC4CCN(C)CC4)c(C)c3oc2=O)cc1CC=C(C)C [OAc, 4-(3-(8-methyl-7-((1-methylpiperidin-4-yl)oxy)-2-oxo-2H-chromen-3-yl)ureido)-2-(3-methylbut-2-en-1-yl)phenyl acetate]",,,,,,,,,,,,,,,,,,,,,"IC50 [1, 3]: 540 nM; IC50 [2, 4]: 490 nM; IC50 (HCT-116; [5]): 340 nM; IC50 (PC-3; [6]): 380 nM; IC50 (A-549; [7]): 380 nM; IC50 (MDA1986; [8]): 1320 nM; IC50 (JMAR; [9]): 870 nM; IC50 (MDAMB231; [10]): 750 nM; IC50 (DRO81-1; [11]): 530 nM; IC50 (BCPAP; [12]): 129 nM; IC50 (MRC5; [13]): 1800 nM; IC50 (HMLE; [11]): 7200 nM"
"COc1cccc(-c2cc(NC(=O)Nc3cc4ccc(OC5CCN(C)CC5)c(C)c4oc3=O)ccc2OC)c1 [OMe, OMe, 1-(3′,6-dimethoxy-[1,1′-biphenyl]-3-yl)-3-(8-methyl-7-((1-methylpiperidin-4-yl)oxy)-2-oxo-2H-chromen-3-yl)urea]",,,,,,,,,,,,,,,,,,,,,"IC50 [1, 14]: 170 nM; IC50 [2, 15]: 200 nM; IC50 (HCT-116; [16]): 460 nM; IC50 (PC-3; [17]): 470 nM; IC50 (A-549; [18]): 470 nM; IC50 (MDA1986; [19]): 1390 nM; IC50 (JMAR; JMAR, Table 8, biphenyl ureas): 500 nM; IC50 (MDAMB231; [20]): 610 nM; IC50 (DRO81-1; Table 8, biphenyl ureas): 480 nM; IC50 (BCPAP; [21]): 390 nM; IC50 (MRC5; MRC5, Table 8, biphenyl ureas): 4300 nM; IC50 (HMLE; Table 8, biphenyl ureas): 1600 nM"
"Cc1cccc(NC(=O)Nc2cc3ccc(OC4CCN(C)CC4)c(C)c3oc2=O)c1 [m-CH3, 1-(8-methyl-7-((1-methylpiperidin-4-yl)oxy)-2-oxo-2H-chromen-3-yl)-3-(m-tolyl)urea]",,,,,840,550,1110,840,1210,3500,,,,,2020,1800,540,3540,4300,3100,
Cc1c(OC2CCN(C)CC2)ccc2cc(NC(=O)N3CCN(C)CC3)c(=O)oc12 [drawing 158],> 100000,115000,18300 ± 12000,> 25000,,,,,,,> 25000,> 25000,> 25000,> 25000,,,,,,,"IC50 ([1]; Table 9, non-aryl ureas): > 50000 nM; IC50 ([2]; Table 9, non-aryl ureas): 32100 ± 4780 nM"
"COc1ccc(NC(=O)Nc2cc3ccc(OC4CCN(C)CC4)c(C)c3oc2=O)cc1-c1cccc(O)c1 [OMe, OH, 1-(3′-hydroxy-6-methoxy-[1,1′-biphenyl]-3-yl)-3-(8-methyl-7-((1-methylpiperidin-4-yl)oxy)-2-oxo-2H-chromen-3-yl)urea]",,,,,,,,,,,,,,,,,,,,,"IC50 [1, 14]: 390 nM; IC50 [2, 15]: 290 nM; IC50 (HCT-116; [16]): 420 nM; IC50 (PC-3; [17]): 600 nM; IC50 (A-549; [18]): 410 nM; IC50 (MDA1986; [19]): 2800 nM; IC50 (JMAR; JMAR, Table 8, biphenyl ureas): 960 nM; IC50 (MDAMB231; [20]): 95 nM; IC50 (DRO81-1; Table 8, biphenyl ureas): 1200 nM; IC50 (BCPAP; [21]): 1940 nM; IC50 (MRC5; MRC5, Table 8, biphenyl ureas): 9800 nM; IC50 (HMLE; Table 8, biphenyl ureas): 3700 nM"
"CC(=O)Oc1cccc(NC(=O)Nc2cc3ccc(OC4CCN(C)CC4)c(C)c3oc2=O)c1 [m-OAc, 3-(3-(8-methyl-7-((1-methylpiperidin-4-yl)oxy)-2-oxo-2H-chromen-3-yl)ureido)phenyl acetate]",,,,,2370,1410,12100,1910,1910,4100,,,,,6820,3850,2700,2820,> 25000,13600,
Cc1c(OC2CCN(C)CC2)ccc2cc(NC(=O)N(C)Cc3ccccc3)c(=O)oc12 [drawing 160],183000,28700 ± 24600,138000,> 25000,,,,,,,13400,7500,19500,8.4,,,,,,,
"COc1ccc(NC(=O)Nc2cc3ccc(OC4CCN(C)CC4)c(C)c3oc2=O)cc1CC=C(C)C [OMe, 1-(4-methoxy-3-(3-methylbut-2-en-1-yl)phenyl)-3-(8-methyl-7-((1-methylpiperidin-4-yl)oxy)-2-oxo-2H-chromen-3-yl)urea]",,,,,,,,,,,,,,,,,,,,,"IC50 [1, 3]: 510 nM; IC50 [2, 4]: 370 nM; IC50 (HCT-116; [5]): 300 nM; IC50 (PC-3; [6]): 230 nM; IC50 (A-549; [7]): 230 nM; IC50 (MDA1986; [8]): 850 nM; IC50 (JMAR; [9]): 800 nM; IC50 (MDAMB231; [10]): 830 nM; IC50 (DRO81-1; [11]): 210 nM; IC50 (BCPAP; [12]): 1340 nM; IC50 (MRC5; [13]): 2640 nM; IC50 (HMLE; [11]): 6500 nM"
"CC(=O)c1cccc(NC(=O)Nc2cc3ccc(OC4CCN(C)CC4)c(C)c3oc2=O)c1 [m-COCH3, 1-(3-acetylphenyl)-3-(8-methyl-7-((1-methylpiperidin-4-yl)oxy)-2-oxo-2H-chromen-3-yl)urea]",,,,,830,1170,720,1230,540,610,,,,,21000,15700,13600,270,> 25000,1900,
Cc1c(OC2CCN(C)CC2)ccc2cc(NC(=O)N(Cc3ccccc3)Cc3ccccc3)c(=O)oc12 [drawing 161],5950 ± 2920,1270 ± 90,3570 ± 550,2800,,,,,,,3650,700,1900,1810,,,,,,,"IC50 ([1]; Table 9, non-aryl ureas): 1210 ± 20 nM; IC50 ([2]; Table 9, non-aryl ureas): 3360 ± 160 nM"

# Second part, led by results:
"IC50 (HCT-116; Table 9, non-aryl ureas) [nM]","IC50 (PC-3; Table 9, non-aryl ureas) [nM]","IC50 (A-549; Table 9, non-aryl ureas) [nM]","IC50 (MDAMB231; Table 9, non-aryl ureas) [nM]","IC50 [1, 22] [nM]","IC50 [2, 23] [nM]",IC50 (HCT-116; [24]) [nM],IC50 (PC-3; [25]) [nM],IC50 (A-549; [26]) [nM],IC50 (MDAMB231; [29]) [nM],Structure (SMILES),"IC50 (MDA1986; Table 9, non-aryl ureas) [nM]","IC50 (JMAR; Table 9, non-aryl ureas) [nM]","IC50 (DRO81-1; Table 9, non-aryl ureas) [nM]","IC50 (BCPAP; Table 9, non-aryl ureas) [nM]",IC50 (MDA1986; [27]) [nM],IC50 (JMAR; [28]) [nM],IC50 (DRO81-1; [30]) [nM],IC50 (BCPAP; [31]) [nM],IC50 (MRC5; [32]) [nM],IC50 (HMLE; [30]) [nM],also measured
660 ± 150,870 ± 330,280 ± 30,7900,,,,,,,Cc1c(OC2CCN(C)CC2)ccc2cc(NC(=O)NCc3ccccc3)c(=O)oc12 [drawing 159],14400,> 25000,14600,45,,,,,,,
12100 ± 610,4540 ± 460,4850 ± 290,3800,,,,,,,Cc1c(OC2CCN(C)CC2)ccc2cc(NC(=O)NC(C)(C)C)c(=O)oc12 [drawing 157],21500,2100,> 25000,2570,,,,,,,"IC50 ([1]; Table 9, non-aryl ureas): 3960 ± 140 nM; IC50 ([2]; Table 9, non-aryl ureas): 1770 ± 260 nM"
,,,,2370,2730,> 100000,10900,10900,1300,"Cc1c(OC2CCN(C)CC2)ccc2cc(NC(=O)Nc3cccc(O)c3)c(=O)oc12 [m-OH, 1-(3-hydroxyphenyl)-3-(8-methyl-7-((1-methylpiperidin-4-yl)oxy)-2-oxo-2H-chromen-3-yl)urea]",,,,,21900,6500,> 25000,270,> 25000,11900,
,,,,1480,1720,2610,1150,1510,850,"CC(=O)Oc1ccc(NC(=O)Nc2cc3ccc(OC4CCN(C)CC4)c(C)c3oc2=O)cc1 [p-OAc, 4-(3-(8-methyl-7-((1-methylpiperidin-4-yl)oxy)-2-oxo-2H-chromen-3-yl)ureido)phenyl acetate]",,,,,1980,3500,3700,5530,15500,15900,
